Experimental data: publication PMC7503225, “Repositioning Dequalinium as Potent Muscarinic Allosteric Ligand by Combining Virtual Screening Campaigns and Experimental Binding Assays” (International Journal of Molecular Sciences, 2020)

Tests used:
[1] = target: T1, hM5 muscarinic receptor (Homo sapiens, UniProt P08912); assay: Equilibrium inhibition binding with [3H]-NMS, CHO cell membranes; settings: [3H]-NMS 0.2 nM, CHO membranes, mean ± SEM of 3-4 experiments; read-out: pKi hM5 (converted)
T1 construct: expressed in transfected cells; host or cells: CHO cells, stably transfected; membrane fractions
T1 sequence (P08912 1-532): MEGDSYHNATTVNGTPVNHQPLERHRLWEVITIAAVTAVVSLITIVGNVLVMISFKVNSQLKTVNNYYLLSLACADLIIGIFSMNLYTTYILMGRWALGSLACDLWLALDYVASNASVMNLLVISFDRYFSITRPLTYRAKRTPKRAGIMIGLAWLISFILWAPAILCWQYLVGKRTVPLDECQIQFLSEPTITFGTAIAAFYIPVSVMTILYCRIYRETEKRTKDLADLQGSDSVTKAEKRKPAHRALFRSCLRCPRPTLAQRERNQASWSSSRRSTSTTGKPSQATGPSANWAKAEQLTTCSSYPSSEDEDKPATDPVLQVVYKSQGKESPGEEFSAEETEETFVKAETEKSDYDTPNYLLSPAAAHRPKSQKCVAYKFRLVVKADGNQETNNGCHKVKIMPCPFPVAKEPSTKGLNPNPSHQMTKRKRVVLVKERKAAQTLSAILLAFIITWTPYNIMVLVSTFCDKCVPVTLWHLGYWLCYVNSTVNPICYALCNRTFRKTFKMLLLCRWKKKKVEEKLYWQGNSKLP
Method: (§1) All tested compounds were purchased from Merck KGaA (Darmstadt, Germany). The radioligand binding experiments were performed with membranes from Chinese Hamster Ovary (CHO) cells stably transfected with the five cloned human muscarinic receptor subtypes (hM1-5). Membrane fractions were prepared according to the protocol, which have been previously described; membranes were stored at −80 °C until use. Nonspecific binding was defined by the radioactivity bound in the presence of 10 µM atropine.
(§2) Aliquots of membranes (25–70 µg/mL) were added and incubated for 2 h at room temperature, filtered through UniFilter GF/B plates (PerkinElmer Life and Analytical Science, Monza, Italy) using a FilterMate cell harvester (PerkinElmer Life and Analytical Science, Monza, Italy). The filters were washed several times with ice-cold MilliQ water. Then, the plates were counted in a β-counter (TopCount NXT microplate scintillation counter, PerkinElmer Life and Analytical Science, Monza, Italy).
(§3) Data points from radioligand inhibition binding curve were fitted to models using nonlinear regression equation to determine inhibitor potency (IC50) estimates, which were then converted to Ki values as appropriate.
(§4) All the results are expressed as means ± SEM obtained from 3-4 independent experiments each one performed in duplicate.

[2] = target: T2, hM1 muscarinic receptor (Homo sapiens, UniProt P11229); assay: as above; settings: [3H]-NMS 0.2 nM, mean ± SEM of 3-4 experiments, read-out: pKi hM1 (converted)
T2 construct: expressed in transfected cells; host or cells: CHO cells, stably transfected; membrane fractions
T2 sequence (P11229 1-460): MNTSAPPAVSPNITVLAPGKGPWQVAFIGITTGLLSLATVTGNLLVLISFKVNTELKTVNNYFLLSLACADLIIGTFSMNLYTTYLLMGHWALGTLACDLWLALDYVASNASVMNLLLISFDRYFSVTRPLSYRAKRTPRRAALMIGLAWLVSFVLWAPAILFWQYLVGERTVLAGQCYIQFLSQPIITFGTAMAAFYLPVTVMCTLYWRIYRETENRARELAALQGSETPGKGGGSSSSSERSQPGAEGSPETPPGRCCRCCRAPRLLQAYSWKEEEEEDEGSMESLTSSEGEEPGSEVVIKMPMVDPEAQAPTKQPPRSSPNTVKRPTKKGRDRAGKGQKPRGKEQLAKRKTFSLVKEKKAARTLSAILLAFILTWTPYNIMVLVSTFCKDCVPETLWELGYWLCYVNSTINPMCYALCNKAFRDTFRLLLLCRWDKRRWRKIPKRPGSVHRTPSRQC
Method: as §1, §2, §3, §4

[3] = target: T3, hM2 muscarinic receptor (Homo sapiens, UniProt P08172); assay: as above; settings: [3H]-NMS 0.2 nM, mean ± SEM of 3-4 experiments, read-out: pKi hM2 (converted)
T3 construct: expressed in transfected cells; host or cells: CHO cells, stably transfected; membrane fractions
T3 sequence (P08172 1-466): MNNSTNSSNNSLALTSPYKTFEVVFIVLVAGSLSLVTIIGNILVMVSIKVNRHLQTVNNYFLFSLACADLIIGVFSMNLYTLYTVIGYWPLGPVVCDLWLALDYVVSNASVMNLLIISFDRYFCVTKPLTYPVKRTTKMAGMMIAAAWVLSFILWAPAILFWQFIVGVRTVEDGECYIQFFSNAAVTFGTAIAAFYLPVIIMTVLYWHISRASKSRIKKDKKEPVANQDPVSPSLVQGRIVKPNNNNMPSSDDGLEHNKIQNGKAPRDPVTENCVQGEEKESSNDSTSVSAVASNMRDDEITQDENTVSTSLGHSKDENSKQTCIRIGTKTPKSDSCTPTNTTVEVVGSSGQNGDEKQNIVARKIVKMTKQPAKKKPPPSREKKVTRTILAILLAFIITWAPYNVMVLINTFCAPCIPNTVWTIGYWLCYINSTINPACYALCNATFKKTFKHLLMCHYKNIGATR
Method: as §1, §2, §3, §4

[4] = target: T4, hM3 muscarinic receptor (Homo sapiens, UniProt P20309); assay: as above; settings: [3H]-NMS 0.2 nM, mean ± SEM of 3-4 experiments, read-out: pKi hM3 (converted)
T4 construct: expressed in transfected cells; host or cells: CHO cells, stably transfected; membrane fractions
Method: as §1, §2, §3, §4

[5] = target: T5, hM4 muscarinic receptor (Homo sapiens, UniProt P08173); assay: as above; settings: [3H]-NMS 0.2 nM, CHO membranes, mean ± SEM of 3-4 experiments; read-out: pKi hM4 (converted)
T5 construct: expressed in transfected cells; host or cells: CHO cells, stably transfected; membrane fractions
T5 sequence (P08173 1-479): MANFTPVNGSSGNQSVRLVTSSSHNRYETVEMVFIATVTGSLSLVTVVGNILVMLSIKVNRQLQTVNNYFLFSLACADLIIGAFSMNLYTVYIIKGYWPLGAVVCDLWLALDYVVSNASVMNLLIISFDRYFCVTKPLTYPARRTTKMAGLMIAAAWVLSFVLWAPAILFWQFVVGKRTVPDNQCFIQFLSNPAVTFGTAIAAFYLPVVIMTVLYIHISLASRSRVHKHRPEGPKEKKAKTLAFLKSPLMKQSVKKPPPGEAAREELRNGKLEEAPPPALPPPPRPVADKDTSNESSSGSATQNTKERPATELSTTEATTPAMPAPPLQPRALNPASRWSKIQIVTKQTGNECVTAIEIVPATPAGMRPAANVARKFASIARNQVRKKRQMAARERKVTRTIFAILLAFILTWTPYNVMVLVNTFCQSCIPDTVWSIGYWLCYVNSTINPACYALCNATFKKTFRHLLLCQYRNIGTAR
Method: as §1, §2, §3, §4

[6] = target: five human muscarinic receptors subtypes (hM1–hM5); assay: Equilibrium binding, summary statements over the five subtypes
Method: as §1, §2, §3, §4

T4 sequence (P20309 whole entry): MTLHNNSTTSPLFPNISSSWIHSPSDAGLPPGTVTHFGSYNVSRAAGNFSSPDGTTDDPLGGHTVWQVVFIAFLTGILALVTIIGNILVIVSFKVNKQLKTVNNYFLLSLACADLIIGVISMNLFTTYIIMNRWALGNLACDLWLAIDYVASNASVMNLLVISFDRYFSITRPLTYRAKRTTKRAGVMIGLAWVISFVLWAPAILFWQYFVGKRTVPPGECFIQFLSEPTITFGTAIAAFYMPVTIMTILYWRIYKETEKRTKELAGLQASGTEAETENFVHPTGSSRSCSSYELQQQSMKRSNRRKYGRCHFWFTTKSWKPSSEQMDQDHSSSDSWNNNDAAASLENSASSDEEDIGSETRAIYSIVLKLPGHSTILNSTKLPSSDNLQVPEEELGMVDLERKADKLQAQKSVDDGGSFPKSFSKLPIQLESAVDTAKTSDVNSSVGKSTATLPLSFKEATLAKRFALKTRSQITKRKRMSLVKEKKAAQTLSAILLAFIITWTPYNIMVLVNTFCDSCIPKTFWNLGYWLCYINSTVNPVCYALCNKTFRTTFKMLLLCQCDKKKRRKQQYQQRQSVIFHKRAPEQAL

Cc1cc(N)c2ccccc2[n+]1CCCCCCCCCC[n+]1c(C)cc(N)c2ccccc21 [dequalinium]
Ki [1]: 158 nM
Ki [2]: 41.7 nM
Ki [3]: 661 nM
Ki [4]: 170 nM
Ki [5]: 69.2 nM
pKi values (muscarinic subtypes overall) [6]: greater than 7.0
